Measured values: US10112944B2, “Heterocyclic compounds useful as inhibitors of TNF” (BRISTOL-MYERS SQUIBB COMPANY, priority 2015, dated 2018)

Biological target: TNFα (Homo sapiens (Human), UniProt P01375)
Assay: TNF induced HEK-Blue assay
Assay type: cell-based
Conditions: HEK-Blue-CD40L cells, TNFα 0.5 ng/ml, NF-κB-driven secreted alkaline phosphatase reporter, 18 h
Method: TNF or CD40L-Induced HEK-Blue Assay
Test compounds serially diluted in DMSO were plated in an assay plate (Labcyte, Cat. #LP-0200) at final concentrations ranging from 0.004 μM to 25 μM. TNFα (final concentration 0.5 ng/ml) or CD40L (final concentration 30 ng/ml) in assay buffer [DMEM, 4.5 g/l glucose (Gibco, Cat. 21063-029), 10% FBS (Sigma, F4135), 1% Penicillin-Streptomycin (Gibco, Cat. 15140-122), 1% Anti-Anti (Gibco, Cat. 15240-112) and 2 mM L-glutamine (Gibco, Cat. 25030-081)] was then added to the assay plate. After a 30 minute pre-incubation at 37° C. and 5% CO2, HEK-Blue-CD40L cells (InvivoGen, Cat. Code hkb-cd40) containing a NF-κB-driven secreted alkaline phosphatase reporter gene were seeded into the assay plate at a density of 20,000 cells per well. This plate was then incubated for 18 h at 37° C. and 5% CO2. Secreted alkaline phosphatase expression was measured using QUANTI-Blue (InvivoGen, Cat. Code rep-qbl) according to manufacturer's specifications and the assay plate was read on a PerkinElmer Envision at 620 nm.
Inhibition data for the test compound over a range of concentrations was plotted as percentage inhibition of the test compound (100%=maximum inhibition). IC50 values were determined after correcting for background [(sample read−mean of low control)/(mean of high control−mean of low control)] where by the low control is DMSO without stimulation and high control is DMSO with stimulation. The IC50 is defined as the concentration of test compound which produces 50% inhibition and was quantified using the 4 parameter logistic equation to fit the data.

Sequence of TNFα (P01375 77-233): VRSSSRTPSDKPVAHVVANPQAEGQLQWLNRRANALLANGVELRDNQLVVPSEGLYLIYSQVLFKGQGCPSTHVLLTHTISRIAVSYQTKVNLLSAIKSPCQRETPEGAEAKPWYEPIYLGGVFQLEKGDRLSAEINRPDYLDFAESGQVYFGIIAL

An IC50 of less than 1 µM was found for `CCc1ccccc1N1CCCc2nc3ccc(-c4ccc(OC)nc4)cn3c21` [Example 28, 1-(2-Ethylphenyl)-8-(6-methoxypyridin-3-yl)-1,2,3,4-tetrahydroimidazo [1,2-a:5,4-b′]dipyridine] in this work.
An IC50 of 1 to 10 µM was found for `COc1ccc(-c2ccc3nc4c(n3c2)N(c2ccc(C)cc2C)CCC4)cn1` [Example 30, 1-(2,4-Dimethylphenyl)-8-(6-methoxypyridin-3-yl)-1,2,3,4-tetrahydroimidazo[1,2-a:5,4-b′]dipyridine] in this work.
An IC50 of less than 1 µM was found for `COc1ccc(-c2ccc3nc4c(n3c2)N(c2ccccc2Cl)CCC4)cn1` [Example 31, 1-(2-Chlorophenyl)-8-(6-methoxypyridin-3-yl)-1,2,3,4-tetrahydroimidazo[1,2-a:5,4-b′]dipyridine] in this work.
An IC50 of less than 1 µM was found for `COc1ccc(-c2ccc3nc4c(n3c2)N(c2cc(Cl)ccc2C)CCC4)cn1` [Example 32, 1-(5-Chloro-2-methylphenyl)-8-(6-methoxypyridin-3-yl)-1,2,3,4-tetrahydroimidazo[1,2-a:5,4-b′]dipyridine] in this work.
An IC50 of less than 1 µM was found for `CC(C)(O)c1ncc(-c2ccc3nc4c(n3c2)N(c2ccccc2OC(F)F)CCC4)cn1` [Example 34, 2-(5-(1-(2-(Difluoromethoxy)phenyl)-1,2,3,4-tetrahydroimidazo[1,2-a:5,4-b′]dipyridin-8-yl)pyrimidin-2-yl)propan-2-ol] in this work.
An IC50 of less than 1 µM was found for `CC(C)(O)c1ccc(-c2ccc3nc4c(n3c2)N(c2ccccc2OC(F)F)CCC4)cc1` [Example 35, 2-(4-(1-(2-(Difluoromethoxy)phenyl)-1,2,3,4-tetrahydroimidazo[1,2-a:5,4-b′]dipyridin-8-yl)phenyl)propan-2-ol] in this work.
An IC50 of 1 to 10 µM was found for `Cc1ccc(C)c(N2CCCc3nc4ccc(-c5ccc(C(C)(C)O)cc5)cn4c32)c1` [Example 36, 2-(4-(1-(2,5-Dimethylphenyl)-1,2,3,4-tetrahydroimidazo[1,2-a:5,4-b′]dipyridin-8-yl)phenyl)propan-2-ol] in this work.
An IC50 of less than 1 µM was found for `COc1ccc(-c2ccc3nc4c(n3c2)N(c2cc(C)ccc2C)CCC4C)cn1` (stereo not drawn) [Example 37, 1-(2,5-Dimethylphenyl)-8-(6-methoxypyridin-3-yl)-4-methyl-1,2,3,4-tetrahydroimidazo[1,2-a:5,4-b′]dipyridine] in this work.
An IC50 of less than 1 µM was found for `COc1ccc(-c2ccc3nc4c(n3c2)N(c2ccccc2OC(F)F)CCC4C)cn1` (stereo not drawn) [Example 38, 1-(2-(Difluoromethoxy)phenyl)-8-(6-methoxypyridin-3-yl)-4-methyl-1,2,3,4-tetrahydroimidazo[1,2-a:5,4-b′]dipyridine] in this work.
An IC50 of less than 1 µM was found for `Cc1ccc(C)c(N2CCC(C)c3nc4ccc(-c5cnn(C)c5)cn4c32)c1` (stereo not drawn) [Example 39, 1-(2,5-Dimethylphenyl)-4-methyl-8-(1-methyl-1H-pyrazol-4-yl)-1,2,3,4-tetrahydroimidazo[1,2-a:5,4-b′]dipyridine] in this work.
An IC50 of less than 1 µM was found for `CC1CCN(c2ccccc2OC(F)F)c2c1nc1ccc(-c3cnn(C)c3)cn21` (stereo not drawn) [Example 40, 1-(2-(Difluoromethoxy)phenyl)-4-methyl-8-(1-methyl-1H-pyrazol-4-yl)-1,2,3,4-tetrahydroimidazo[1,2-a:5,4-b′]dipyridine] in this work.
An IC50 of 1 to 10 µM was found for `Cc1ccc(C)c(N2CCCc3nc4c(C)c(C)c(-c5cnc(N6CCOCC6)nc5)cn4c32)c1` [Example 41, 4-(5-(1-(2,5-Dimethylphenyl)-6,7-dimethyl-1,2,3,4-tetrahydroimidazo [1,2-a:5,4-b′]dipyridin-8-yl)pyrimidin-2-yl)morpholine] in this work.
